The target in one assay is T1, 5-Lipoxygenase (Homo sapiens, UniProt P09917).
T1 construct: endogenous in cells; host or cells: whole blood of male human donors (results per 10^6 neutrophils)
T1 sequence (P09917 1-674): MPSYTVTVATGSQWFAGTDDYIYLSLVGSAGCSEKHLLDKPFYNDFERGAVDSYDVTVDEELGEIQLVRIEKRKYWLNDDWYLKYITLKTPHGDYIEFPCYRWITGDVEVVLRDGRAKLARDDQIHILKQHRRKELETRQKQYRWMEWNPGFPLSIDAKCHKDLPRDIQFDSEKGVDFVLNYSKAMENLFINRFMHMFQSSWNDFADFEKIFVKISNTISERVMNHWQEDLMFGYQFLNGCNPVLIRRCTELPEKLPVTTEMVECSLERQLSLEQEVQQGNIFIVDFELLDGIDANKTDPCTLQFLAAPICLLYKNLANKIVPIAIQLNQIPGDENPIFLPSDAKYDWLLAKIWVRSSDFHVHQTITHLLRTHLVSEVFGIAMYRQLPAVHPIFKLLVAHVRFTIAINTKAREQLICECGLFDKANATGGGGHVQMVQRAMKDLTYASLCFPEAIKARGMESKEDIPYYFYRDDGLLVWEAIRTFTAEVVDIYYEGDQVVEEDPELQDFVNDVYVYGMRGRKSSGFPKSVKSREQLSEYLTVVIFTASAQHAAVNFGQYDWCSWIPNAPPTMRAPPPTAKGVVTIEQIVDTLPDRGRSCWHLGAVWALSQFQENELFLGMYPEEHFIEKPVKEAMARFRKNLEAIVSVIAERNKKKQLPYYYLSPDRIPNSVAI
Briefly: Inhibition of 5-Lipoxygenase in Human Whole Blood (ionophore A23187-stimulated LTB4). It is filed as cell-based. How it is done:
1. Inhibition of 5-Lipoxygenase in Human Whole Blood
Blood is obtained in 50-100 ml quantities from male donors. White blood cell counts and differentials are made. Two ml of blood are placed in a 15 ml polypropylene test tube. Test compounds are solubilized in dimethylsulfoxide and diluted in 1:10 in 10% bovine serum albumin in phosphate buffered saline, pH 7.4 resulting in a final dimethylsulfoxide concentration of 0.1% in the blood. Then, solutions of test compounds are added to the blood in a shaking water bath at 37° C. for 10 minutes prior to the addition of 30 μM calcium ionophore (A23187, Sigma). After ionophore administration, whole blood samples are mixed and incubated for 20 minutes at 37° C. in a shaking water bath. Incubation is terminated by placing samples in an ice bath and immediately adding ethylene glycol-bis-(β-aminoethyl ether)-N, N,N',N'-tetraacetic acid (10 mM). Samples are mixed and centrifuged at 1200×g for 15 minutes at […]. Preparation of samples for evaluation by RIA or ELISA is carded out by the following protocol. Plasma is removed from sample tubes, placed in 15 ml polypropylene test tubes containing 8 ml methanol, and then vortexed to precipitate protein. Samples are stored at -70° C. overnight. The next day, samples are centrifuged at 200×g for 15 minutes at 4° C. to pellet the precipitate. Samples are dried in a Savant SpeedVac Concentrator, Model SVC 200H, reconstituted to original volume with ice cold RIA or ELISA buffer, and stored at -70° C. until assayed. The assay for eicosanoids (LTB4, TxB2, and PGE2) is performed as described by the manufacturer of the [^3 H]-RIA kit or ELISA kit (LTB4 -Amersham, TxB2 and PGE2 - Caymen Chemical).
The total eicosanoid level in 2 ml of blood is calculated and reported as ng/10^6 neutrophils. Significance is determined by a one-way analysis of variance with least significant difference (LSD) comparisons to control (p≤0.05) and IC50 's (μM) are determined by regression analysis (Finney, 1978). Drug effects are expressed as percent change from control values.

Another assay relates to Low Density Lipoprotein. Briefly: Inhibition of Copper Ion Mediated Oxidation of Low Density Lipoprotein. It is filed as biochemical. To be noted: Cu+2 mediated oxidation of rabbit or monkey LDL, 37° C., 90 minutes, 532 nm. As for the experimental part: 5. Inhibition of Copper Ion Mediated Oxidation of Low Density Lipoprotein
In this in vitro assay, the inhibition of Cu^+2 mediated oxidation of rabbit or monkey LDL by an invention compound is determined spectrophotometricallly. Oxidation of LDL results in the formation of LDL-diene which absorbs light at 532 nm. Inhibition of oxidation of LDL leads to a decrease in absorbance at 532 nm.
Rabbit or monkey LDL is prepared according to the procedures of Havel, Eder and Gragdon, "The Distribution and Chemical Composition of Ultracentrifugally Separated Lipoproteins in Human Serum,: J. Clin. Invest. 34, 1345-1353 (1955) and Parhtasarathy, Wieland and Steriberg, "A Role for Endothelial Cell Lipoxygenase in the Oxidative Modification of Low Density Lipoprotein," Proc. Natl. Acad. Sci. USA 86, 1046-1050 (1989). Test compound solutions are prepared by dissolving the invention compounds in ethanol at concentrations up to 248 μM. The medium used is Dulbecco's phosphate buffered saline containing 0.5 mg/ml bovine serum albumin. For standards, 0 to 10 μl of an aqueous solution of 1,1,3,3-tetraethoxypropane (1 μmol/ml H2 O) in 4.1 ml of medium is used.
Test compound solution ([…]) is added to 4 ml of medium in incubation tubes. To each tube is added 10 μl of LDL solution and 25 μl of aqueous copper sulfate solution (1.32 mg/ml H2 O). The tubes are incubated at 37° C. for 90 minutes and the oxidation reaction quenched by addition of 1 ml of thiobarbituric acid solution (0.67% in 50% acetic acid). The tubes are heated at 90° C. for 1 hour, then chilled in an ice bath and the chromophore extracted into 2 ml of n-butanol. Absorbence is read at 532 nm and the results are reported as nmols of malondialdehyde equivalents.
Significant differences (p<0.05) are determined by the Dunnett T-test or by the Student-Newman-Keuls Test for significant differences between means. The assay is conducted using several concentrations [I] of the inhibitor test compounds. The LDL solution concentrations at different experiments were either 1.5 mg/ml, 2.5 mg/ml or 10.3 mg/ml. The IC50 is determined by non-linear regression, plotting log [I] vs. % inhibition. (Reference: K. Yagi, Biochemical Medicine 15,212-216 (1976)).

Turning to `Cc1oc(-c2ccccc2)nc1CCOc1ccc(CN(O)C(N)=O)cc1` [Example 1], the inhibition (in general, the percentage by which the read-out fell short of the control) at 1 µM against 5-Lipoxygenase was 55%. Moreover, in the assay with Low Density Lipoprotein, the concentration for half-maximal inhibition (IC50) (as a rule, the midpoint of a concentration-inhibition curve) came out at 0.69 µM.

For the molecule `Cc1oc(-c2ccccc2)nc1CCOc1ccc(C(C)N(O)C(N)=O)cc1` (stereo not shown) [Example 4], on 5-Lipoxygenase (10 μM), the inhibition at 10 µM came out at 60%. It took 1.3 µM to reach half-maximal inhibition with Low Density Lipoprotein (IC50).

On to `Cc1oc(-c2ccc(C(F)(F)F)cc2)nc1CCOc1ccc(CN(O)C(N)=O)cc1` [Example 13, 1-Hydroxy-1-[4-[2-[5-methyl-2(4-trifluoromethyl-phenyl)-oxazol-4-yl]-ethoxy]benzyl]-urea], for which the inhibition at 1 µM at 5-Lipoxygenase was 47%. This molecule showed an IC50 in the assay on Low Density Lipoprotein of 0.82 µM.

As to `NC(=O)N(O)Cc1ccc(OCCc2noc(-c3ccccc3)n2)cc1` [Example 21, 1-hydroxy-1-[4-[2-(5-phenyl-[1,2,4]-oxadiazol-3-yl)-ethoxy]-benzyl]-urea], 1 µM produced 70% inhibition against 5-Lipoxygenase.

For the origin of these results see patent US5428048A, “Aryl-N-hydroxyureas as inhibitors of 5-lipoxygenase and anto-arteriosclerotic agents” (American Home Products Corporation, priority 1993, dated 1995).
